In brackets after ≈: the same amount, converted by molar mass. Blank lines part the entries; values can stand above or below the compound they belong to. Activity calls are given as the source filed them. The rule behind the calls is not given here.
Tests used:
[1] = target: Methionine--tRNA ligase (Staphylococcus aureus (strain Mu50 / ATCC 700699)) (UniProt P67578); assay: Binding affinity to Staphylococcus aureus MetRS expressed in Escherichia coli BL21(DE3) cells assessed as change in entropy by ITC analysis
[2] = target: T1, Methionine--tRNA ligase (Enterococcus faecalis) (UniProt A0A3N3ZFK4); assay: Binding affinity to Enterococcus faecalis type 1 MetRS expressed in Escherichia coli BL21(DE3) cells assessed as change in Gibbs free energy by ITC analysis
T1 sequence (A0A3N3ZFK4 as listed by the source): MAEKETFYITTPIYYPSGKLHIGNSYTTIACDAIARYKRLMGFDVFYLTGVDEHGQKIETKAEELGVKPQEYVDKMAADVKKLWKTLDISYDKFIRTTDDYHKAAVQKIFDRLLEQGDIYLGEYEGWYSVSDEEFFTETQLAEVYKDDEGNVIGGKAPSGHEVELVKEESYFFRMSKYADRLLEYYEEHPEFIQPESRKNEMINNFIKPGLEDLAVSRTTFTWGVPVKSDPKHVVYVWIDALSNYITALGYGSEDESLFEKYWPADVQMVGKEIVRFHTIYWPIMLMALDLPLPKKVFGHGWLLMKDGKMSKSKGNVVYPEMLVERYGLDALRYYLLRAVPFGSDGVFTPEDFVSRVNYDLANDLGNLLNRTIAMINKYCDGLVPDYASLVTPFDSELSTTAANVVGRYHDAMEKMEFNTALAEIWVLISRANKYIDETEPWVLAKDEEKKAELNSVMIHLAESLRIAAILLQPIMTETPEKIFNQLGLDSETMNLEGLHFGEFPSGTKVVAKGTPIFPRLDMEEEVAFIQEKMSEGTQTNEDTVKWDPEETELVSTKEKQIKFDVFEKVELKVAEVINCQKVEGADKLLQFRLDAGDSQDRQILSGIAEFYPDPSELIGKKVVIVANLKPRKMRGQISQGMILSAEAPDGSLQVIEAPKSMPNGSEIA

[3] = target: Methionine--tRNA ligase (Staphylococcus aureus (strain Mu50 / ATCC 700699)) (UniProt P67578); assay: Binding affinity to Staphylococcus aureus MetRS expressed in Escherichia coli BL21(DE3) cells assessed as change in melting temperature at 100 uM incubated for 10 mins followed by heat treatment in presence of 2 mM ATP by SYPRO orange dye based TSA (reference value: 56.4 degreeC)
[4] = target: Methionine--tRNA ligase (Staphylococcus aureus (strain Mu50 / ATCC 700699)) (UniProt P67578); assay: Binding affinity to Staphylococcus aureus MetRS expressed in Escherichia coli BL21(DE3) cells assessed as change in entropy in presence of 50 uM ATP by ITC analysis
[5] = target: T1, Methionine--tRNA ligase (Enterococcus faecalis); assay: Binding affinity to Enterococcus faecalis type 1 MetRS expressed in Escherichia coli BL21(DE3) cells assessed as change in Gibbs free energy in presence of 1 mM ATP by ITC analysis
Staphylococcus aureus = assay: Antibacterial activity against Staphylococcus aureus; format: functional
[6] = target: Methionine--tRNA ligase (Staphylococcus aureus (strain Mu50 / ATCC 700699)) (UniProt P67578); assay: Binding affinity to Staphylococcus aureus MetRS expressed in Escherichia coli BL21(DE3) cells assessed as change in enthalpy in presence of ATP/L-Met by ITC analysis
[7] = target: Methionine--tRNA ligase (Staphylococcus aureus (strain Mu50 / ATCC 700699)) (UniProt P67578); assay: Binding affinity to Staphylococcus aureus MetRS expressed in Escherichia coli BL21(DE3) cells assessed as change in enthalpy in presence of 1 mM ATP by ITC analysis
[8] = target: Methionine--tRNA ligase (Staphylococcus aureus (strain Mu50 / ATCC 700699)) (UniProt P67578); assay: Binding affinity to Staphylococcus aureus MetRS expressed in Escherichia coli BL21(DE3) cells assessed as change in entropy in presence of ATP/L-Met by ITC analysis
[9] = target: Methionine--tRNA ligase (Staphylococcus aureus (strain Mu50 / ATCC 700699)) (UniProt P67578); assay: Binding affinity to Staphylococcus aureus MetRS expressed in Escherichia coli BL21(DE3) cells assessed as change in enthalpy in presence of 20 uM ATP by ITC analysis
[10] = target: Methionine--tRNA ligase (Staphylococcus aureus (strain Mu50 / ATCC 700699)) (UniProt P67578); assay: Binding affinity to Staphylococcus aureus MetRS expressed in Escherichia coli BL21(DE3) cells assessed as change in Gibbs free energy in presence of 1 mM ATP by ITC analysis
[11] = target: Methionine--tRNA ligase (Staphylococcus aureus (strain Mu50 / ATCC 700699)) (UniProt P67578); assay: Binding affinity to Staphylococcus aureus MetRS expressed in Escherichia coli BL21(DE3) cells assessed as change in entropy in presence of 500 uM ATP by ITC analysis
[12] = target: Methionine--tRNA ligase (Staphylococcus aureus (strain Mu50 / ATCC 700699)) (UniProt P67578); assay: Inhibition of Staphylococcus aureus MetRS expressed in Escherichia coli BL21(DE3) cells at 100 uM measured after 2.5 hrs in presence of ATP by pre-transfer editing assay relative to control
[13] = target: T1, Methionine--tRNA ligase (Enterococcus faecalis); assay: Binding affinity to Enterococcus faecalis type 1 MetRS expressed in Escherichia coli BL21(DE3) cells assessed as change in enthalpy in presence of 1 mM ATP by ITC analysis
[14] = target: Methionine--tRNA ligase (Staphylococcus aureus (strain Mu50 / ATCC 700699)) (UniProt P67578); assay: Binding affinity to Staphylococcus aureus MetRS expressed in Escherichia coli BL21(DE3) cells assessed as change in enthalpy in presence of 50 uM ATP by ITC analysis
[15] = target: Methionine--tRNA ligase (Staphylococcus aureus (strain Mu50 / ATCC 700699)) (UniProt P67578); assay: Binding affinity to Staphylococcus aureus MetRS expressed in Escherichia coli BL21(DE3) cells assessed as change in Gibbs free energy in presence of 50 uM ATP by ITC analysis
[16] = target: Methionine--tRNA ligase (Staphylococcus aureus (strain Mu50 / ATCC 700699)) (UniProt P67578); assay: Binding affinity to Staphylococcus aureus MetRS expressed in Escherichia coli BL21(DE3) cells assessed as change in Gibbs free energy in presence of 20 uM ATP by ITC analysis
[17] = target: Methionine--tRNA ligase (Staphylococcus aureus (strain Mu50 / ATCC 700699)) (UniProt P67578); assay: Binding affinity to Staphylococcus aureus MetRS expressed in Escherichia coli BL21(DE3) cells assessed as increase in melting temperature incubated for 10 mins followed by heat treatment in presence of 0.30 to 10 mM ADP by SYPRO orange dye based TSA
[18] = target: Methionine--tRNA ligase (Staphylococcus aureus (strain Mu50 / ATCC 700699)) (UniProt P67578); assay: Binding affinity to Staphylococcus aureus MetRS expressed in Escherichia coli BL21(DE3) cells assessed as change in enthalpy in presence of 500 uM ATP by ITC analysis
[19] = target: Methionine--tRNA ligase (Staphylococcus aureus (strain Mu50 / ATCC 700699)) (UniProt P67578); assay: Binding affinity to Staphylococcus aureus MetRS expressed in Escherichia coli BL21(DE3) cells assessed as increase in melting temperature incubated for 10 mins followed by heat treatment in presence of 0.30 to 10 mM ATP by SYPRO orange dye based TSA
[20] = target: Methionine--tRNA ligase (Staphylococcus aureus (strain Mu50 / ATCC 700699)) (UniProt P67578); assay: Binding affinity to Staphylococcus aureus MetRS expressed in Escherichia coli BL21(DE3) cells assessed as thermal stability by measuring change in melting temperature incubated for 10 mins followed by heat treatment in presence of 2 mM ATP by SYPRO orange dye based TSA
[21] = target: Methionine--tRNA ligase (Staphylococcus aureus (strain Mu50 / ATCC 700699)) (UniProt P67578); assay: Binding affinity to Staphylococcus aureus MetRS expressed in Escherichia coli BL21(DE3) cells assessed as change in entropy in presence of 20 uM ATP by ITC analysis
[22] = target: T1, Methionine--tRNA ligase (Enterococcus faecalis); assay: Binding affinity to Enterococcus faecalis type 1 MetRS expressed in Escherichia coli BL21(DE3) cells assessed as change in entropy by ITC analysis
[23] = target: Methionine--tRNA ligase (Staphylococcus aureus (strain Mu50 / ATCC 700699)) (UniProt P67578); assay: Binding affinity to Staphylococcus aureus MetRS expressed in Escherichia coli BL21(DE3) cells assessed as change in melting temperature at 100 uM incubated for 10 mins followed by heat treatment by SYPRO orange dye based TSA (reference value: 53.7 degreeC)
[24] = target: Methionine--tRNA ligase (Staphylococcus aureus (strain Mu50 / ATCC 700699)) (UniProt P67578); assay: Binding affinity to Staphylococcus aureus MetRS expressed in Escherichia coli BL21(DE3) cells assessed as increase in melting temperature incubated for 10 mins followed by heat treatment in presence of <3 mM AMP by SYPRO orange dye based TSA
[25] = target: Methionine--tRNA ligase (Staphylococcus aureus (strain Mu50 / ATCC 700699)) (UniProt P67578); assay: Binding affinity to Staphylococcus aureus MetRS expressed in Escherichia coli BL21(DE3) cells assessed as change in Gibbs free energy in presence of ATP/L-Met by ITC analysis
[26] = target: Methionine--tRNA ligase (Staphylococcus aureus (strain Mu50 / ATCC 700699)) (UniProt P67578); assay: Binding affinity to Staphylococcus aureus MetRS expressed in Escherichia coli BL21(DE3) cells assessed as change in enthalpy by ITC analysis
[27] = target: T1, Methionine--tRNA ligase (Enterococcus faecalis); assay: Binding affinity to Enterococcus faecalis type 1 MetRS expressed in Escherichia coli BL21(DE3) cells assessed as change in entropy in presence of 1 mM ATP by ITC analysis
[28] = target: Methionine--tRNA ligase (Staphylococcus aureus (strain Mu50 / ATCC 700699)) (UniProt P67578); assay: Inhibition of Staphylococcus aureus type 1 MetRS expressed in Escherichia coli BL21(DE3) cells at 50 uM measured after 2.5 hrs by pre-transfer editing assay
[29] = target: T1, Methionine--tRNA ligase (Enterococcus faecalis); assay: Binding affinity to Enterococcus faecalis type 1 MetRS expressed in Escherichia coli BL21(DE3) cells assessed as change in enthalpy by ITC analysis
[30] = target: Methionine--tRNA ligase (Staphylococcus aureus (strain Mu50 / ATCC 700699)) (UniProt P67578); assay: Binding affinity to Staphylococcus aureus MetRS expressed in Escherichia coli BL21(DE3) cells assessed as change in Gibbs free energy in presence of 500 uM ATP by ITC analysis
[31] = target: Methionine--tRNA ligase (Staphylococcus aureus (strain Mu50 / ATCC 700699)) (UniProt P67578); assay: Binding affinity to Staphylococcus aureus MetRS expressed in Escherichia coli BL21(DE3) cells assessed as change in entropy in presence of 1 mM ATP by ITC analysis
[32] = target: Methionine--tRNA ligase (Staphylococcus aureus (strain Mu50 / ATCC 700699)) (UniProt P67578); assay: Binding affinity to Staphylococcus aureus MetRS expressed in Escherichia coli BL21(DE3) cells assessed as change in Gibbs free energy by ITC analysis
[33] = target: T1, Methionine--tRNA ligase (Enterococcus faecalis); assay: Inhibition of Enterococcus faecalis type 1 MetRS expressed in Escherichia coli BL21(DE3) cells at 50 uM measured after 1.5 hrs by pre-transfer editing assay

Structure (SMILES): N=C(NCCCCCCNC(=N)NC(=N)Nc1ccc(Cl)cc1)NC(=N)Nc1ccc(Cl)cc1 [CHLORHEXIDINE]
-TdeltaS [1]: 0.027 kcal/mol
deltaG [2]: -7.23 kcal/mol
ΔTm [3]: 7 °C
-TdeltaS [4]: 10.7 kcal/mol
deltaG [5]: -8.91 kcal/mol
MIC (Staphylococcus aureus): 0.25 µg/mL (≈ 0.495 µM)
deltaH [6]: -13.6 kcal/mol
deltaH [7]: -11 kcal/mol
-TdeltaS [8]: 6.23 kcal/mol
deltaH [9]: -20 kcal/mol
deltaG [10]: -8.66 kcal/mol
-TdeltaS [11]: 4.43 kcal/mol
inhibition [12]: 78.3%
deltaH [13]: -7.31 kcal/mol
deltaH [14]: -18.8 kcal/mol
deltaG [15]: -8.07 kcal/mol
deltaG [16]: -7.52 kcal/mol
Activity [17]: Active
deltaH [18]: -12.5 kcal/mol
Activity [19]: Active
ΔTm [20]: 7 °C
-TdeltaS [21]: 13.8 kcal/mol
-TdeltaS [22]: 4.06 kcal/mol
ΔTm [23]: -3.4 °C
Activity [24]: inactive
deltaG [25]: -7.34 kcal/mol
deltaH [26]: -5.95 kcal/mol
-TdeltaS [27]: -1.6 kcal/mol
inhibition [28]: Active
deltaH [29]: -11.3 kcal/mol
deltaG [30]: -8.5 kcal/mol
-TdeltaS [31]: 2.31 kcal/mol
deltaG [32]: -6.81 kcal/mol
inhibition [33]: Active

ΔTm [3]: 2.1 °C
inhibition [12]: 32.7%
ΔTm [23]: 0.5 °C
Structure (SMILES): COc1cc(Nc2c(C#N)cnc3cc(OCCCN4CCN(C)CC4)c(OC)cc23)c(Cl)cc1Cl
